Measured values published in patent US9383364B2, “Predictive marker of DNMT1 inhibitor therapeutic efficacy and methods of using the marker” (priority 2011, dated 2016).
“Also recorded” adds a separate entry of the source. Where two headings read alike, the source gives them in different places.

Assays:
Colo-205 xenografts = Colo-205 xenografts in nude mice; type: in vivo; settings: for non-specific toxicities as judged by body weight: 25 mg/kg daily for 21 days i.v., FIG. 7C; for in vivo antitumor efficacy: 25 mg/kg/day i.v. for 21 days, FIGS. 7A and 7B
A549 xenografts = assay: A549 lung cancer xenograft model
Description: (§1) U.S. Patent Publication No. 2008/0188570 (herein incorporated by reference in its entirety) further discloses more than 50 analogs of XB05 (BX11). […] In some embodiments, the DNMT1 inhibitor is XB05a (BX12).

global DNA methylation = assay: global DNA methylation; type: cell-based
Description: XB05 (BX11) has activities that slightly differ from other agents in this class of compounds. This is illustrated not only by the NCI 60 data, but also by the effects of XB05 (BX11) and 5-aza on cancer cells and tumor xenografts (FIG. 7). […] XB05 (BX11) and 5-aza may inhibit DNMT activity by different mechanisms.

DNMT1 [1] = target: T1, DNMT1 (Homo sapiens, UniProt P26358); assay: DNMT1 activity in nuclear extracts from treated cells; type: cell-based; design: endogenous in cells; settings: FIG. 5B
Description: (§2) The assays use recombinant Human DNMT1 (FIG. 5A) or nuclear extracts prepared from cells treated with XB05 (BX11) or XB05a (BX12) (FIG. 5B).
Target sequence in this assay (P26358 whole entry, species assumed): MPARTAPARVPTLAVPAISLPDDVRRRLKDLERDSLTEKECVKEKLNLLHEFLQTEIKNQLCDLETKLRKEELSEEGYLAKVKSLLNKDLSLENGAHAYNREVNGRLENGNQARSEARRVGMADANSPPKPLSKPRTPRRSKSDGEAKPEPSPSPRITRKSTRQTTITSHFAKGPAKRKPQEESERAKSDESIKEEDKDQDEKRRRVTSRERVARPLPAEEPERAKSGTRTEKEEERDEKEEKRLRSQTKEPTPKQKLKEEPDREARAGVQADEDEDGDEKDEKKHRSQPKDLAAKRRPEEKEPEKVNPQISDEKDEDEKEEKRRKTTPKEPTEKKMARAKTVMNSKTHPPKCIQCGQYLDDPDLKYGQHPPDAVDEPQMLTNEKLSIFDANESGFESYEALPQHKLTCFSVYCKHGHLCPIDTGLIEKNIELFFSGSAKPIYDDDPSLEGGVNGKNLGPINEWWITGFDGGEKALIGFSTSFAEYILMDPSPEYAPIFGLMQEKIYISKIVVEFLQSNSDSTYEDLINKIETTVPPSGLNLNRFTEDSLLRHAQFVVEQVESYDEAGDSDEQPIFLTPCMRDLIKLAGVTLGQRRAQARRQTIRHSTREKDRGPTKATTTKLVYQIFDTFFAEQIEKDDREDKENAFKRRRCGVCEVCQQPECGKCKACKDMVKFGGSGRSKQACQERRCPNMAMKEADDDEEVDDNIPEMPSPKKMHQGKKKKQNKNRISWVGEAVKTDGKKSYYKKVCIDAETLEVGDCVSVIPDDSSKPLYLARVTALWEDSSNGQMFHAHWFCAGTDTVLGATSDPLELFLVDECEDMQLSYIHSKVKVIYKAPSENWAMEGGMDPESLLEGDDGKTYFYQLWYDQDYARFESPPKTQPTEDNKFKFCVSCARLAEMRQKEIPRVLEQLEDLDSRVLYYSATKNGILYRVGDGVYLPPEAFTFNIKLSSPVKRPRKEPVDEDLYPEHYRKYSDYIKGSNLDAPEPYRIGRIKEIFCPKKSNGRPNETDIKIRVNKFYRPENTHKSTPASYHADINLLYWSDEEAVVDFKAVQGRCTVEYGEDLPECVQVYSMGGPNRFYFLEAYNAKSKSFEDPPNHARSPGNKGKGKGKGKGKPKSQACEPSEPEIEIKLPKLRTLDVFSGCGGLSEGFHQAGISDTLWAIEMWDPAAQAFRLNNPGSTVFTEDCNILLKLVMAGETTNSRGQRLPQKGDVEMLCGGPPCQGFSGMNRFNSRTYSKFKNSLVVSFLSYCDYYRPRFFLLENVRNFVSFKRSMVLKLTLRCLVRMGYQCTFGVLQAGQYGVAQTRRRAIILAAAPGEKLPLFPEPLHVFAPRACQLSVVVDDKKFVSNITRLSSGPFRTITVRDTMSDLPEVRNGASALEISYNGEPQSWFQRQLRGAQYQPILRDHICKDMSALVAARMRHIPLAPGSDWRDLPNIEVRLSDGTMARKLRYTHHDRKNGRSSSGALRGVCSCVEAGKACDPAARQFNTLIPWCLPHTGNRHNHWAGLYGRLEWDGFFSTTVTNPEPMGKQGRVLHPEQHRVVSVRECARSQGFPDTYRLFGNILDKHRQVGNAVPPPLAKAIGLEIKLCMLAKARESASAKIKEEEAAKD

[2] = system: DU145 and LNCaP prostate cancer cells; assay: RT-PCR mRNA expression of silenced tumor suppressor genes; type: cell-based
[3] = system: MDA-MB-231 breast cancer cells; assay: RT-PCR and Western blotting of methylated (repressed) genes; type: cell-based; settings: 1 μM BX11 (XB05), 72 hours, control genes GAPDH and β-actin unchanged
Procedure: Experiments described above were performed to test the effect of BX11 (XB05) on DNMT1 activity. The expression of a number of methylated (repressed) genes in MDA-MB-231 breast cancer cells was further determined using both RT-PCR and Western blotting following treatment with vehicle (control), 1 μM BX11 (XB05), or 10 μM 5-azacytidine (positive control).

HCT116 cells [4] = assay: clonogenic survival and MTT proliferation assays; type: cell-based; settings: colon cancer, positive control
Description: (§3) (3a) results from the NCI 60 cell screen showing a good correlation between the levels of expression of SOX9 and cell death induced by XB05 (BX11); (3b) Western blot showing expression of SOX9 in sensitive cell lines; (3c) clonogenic survival assay in cells sensitive or resistant to XB05 (BX11); (3d) MTT proliferation assays in cells sensitive or resistant to XB05 (BX11).
(§4) FIG. 3B are Western blots (WB) confirming expression of Biomarker X (SOX9) protein in the sensitive cell lines. […] Where indicated, HCT116 cells (colon cancer, sensitive to XB05 (BX11)) and LLC cells (murine lung carcinoma, resistant to XB05 (BX11)) are shown as positive and negative controls, respectively. (SOX9 levels were not assayed in LLC cells because they are of mouse origin).

LLC cells = assay: clonogenic survival and MTT proliferation assays; type: cell-based; settings: murine lung carcinoma, negative control
Description: as §3, §4

HCT116 cells [5] = assay: induction of senescence; type: cell-based; settings: 96 h with 100 nM XB05 (BX11)
MDA-MB-435 = assay: NCI60 breast cancer panel, cytotoxic effect; type: cell-based, human; settings: 1 μM BX11, FIG. 4A
Procedure: (§5) FIG. 4A is NCI60 data showing the effect of XB05 (BX11) on proliferation of various breast cancer cell lines. All cells lines are sensitive to XB05 (BX11) cytostatic effects (GI50<100 nM), whereas a few are especially susceptible to cytotoxic effects (e.g., see 1 μM XB05 (BX11) data points).
(§6) BX11 (XB05) has potent antiproliferative and cytotoxic activity on a variety of breast cancer cell types, with some cell types having GI50 values less than or equal to 10 μM. There were several cell lines that seemed particularly sensitive to the cytotoxic effects of BX11 (BX05). […] The MDA-MB-231 cell line is derived from a triple negative breast cancer (TNBC) and MDA-MB-435 was originally described as being derived from a TNBC, although its origin is now uncertain (it is unquestionably derived from the same source as the M14 melanoma cell line and many believe it is a melanoma, although some argue that both cell lines are derived from a breast carcinoma). […] This latter assay is often used to assess activity against the subpopulation of stem-like cancer cells with enhanced tumor-initiating capacity.

MDA-MB-231 = assay: NCI60 breast cancer panel, cytotoxic effect; type: cell-based, human; settings: 1 μM BX11, FIG. 4A
Procedure: as §5, §6

A549 lung cancer cells = assay: sensitivity of A549 cells to XB05; type: cell-based
Description: The present invention is based on the discovery that SOX9 expression in cancer cells is correlated with sensitivity to cell killing by XB05 (BX11). The COMPARE algorithm (Andrianasolo et al., J. Nat. Prod. 69:576-579, 2006) was used to search for correlations between response to XB05 (BX11) and gene expression using the NCI 60 cell line screen for XB05 (BX11) and the publicly available microarray studies of the NCI 60 panel. […] High levels of SOX9 expression were associated with high sensitivity to XB05 (BX11) across the 60 cell lines, as shown in FIG. 3. […] The experiments have been repeated multiple times and differences are statistically significant (p<0.05).

[6] = system: MDA-MB-231 breast cancer cells; assay: soft agar colony formation assay; type: cell-based; settings: stained 21 days after plating
Procedure: FIG. 4B are data from soft agar colony formation assays for MDA-MB-231 breast cancer cells. The cells were stained with crystal violet 21 days after plating.
FIG. 4C is a graph of the data from the soft agar colony formation assays for MDA-MB-231 breast cancer cells. The data shown are the mean±standard error (n=3).
as §6

HCT116 xenografts = assay: HCT116 xenografts; settings: in vivo
[7] = system: several cancer cell lines, including prostate cancer; assay: activity against cancer cell lines (Table 2); type: cell-based
HOP92 cells = assay: SOX9 siRNA knockdown, cell number and viability; type: cell-based; settings: 60 nM siRNA 24 hours, then XB05 48 hours
Procedure: In a second set of experiments, HOP92 cells were transfected for 24 hours with 60 nM siRNA against SOX9, control siRNA, or no RNA (mock). Knockdown of SOX9 was confirmed by Western blots (WB). Cells were then treated with XB05 (BX11) as indicated. After 48 hours, the cell number and viability for each sample was determined using an automated cell counter.

[8] = system: MDA-MB-231 breast cancer cells; assay: tumorsphere formation assay; type: cell-based; settings: day 12 after plating
Procedure: FIG. 4D are data from tumorsphere formation assays for MDA-MB-231 breast cancer cells on day 12 after plating. The data shown are representative images from three separate experiments.
FIG. 4E is a graph of the data from the tumorsphere formation assays for MDA-MB-231 breast cancer cells on day 12 after plating.
as §6

breast cancer cell lines = assay: NCI60 data, proliferation of breast cancer cell lines; type: cell-based, human; settings: all breast cancer cell lines, FIG. 4A, read-out: GI50 (cytostatic effects)
Procedure: as §5
A variety of different breast cancer cell lines were treated with 1 μM BX11, and the cytotoxic effect of 1 μM BX11 was determined. The cytotoxicity data for each breast cancer cell line was correlated with the SOX9 level present in each cell line prior to treatment.
as §6

endothelial cell (HUVEC) = assay: transwell migration and tube formation assay; type: cell-based; settings: 800 nM XB05 (BX11)
DNMT1 [9] = target: T1, DNMT1; assay: in vitro DNMT1 activity assay; type: biochemical
Description: FIG. 9A is a schematic of an exemplary in vitro DNMT activity assay.
as §2
Target sequence in this assay (P26358 whole entry): as the sequence (P26358 whole entry, species assumed) above

[10] = system: GSTP1 promoter from LNCaP cells; assay: methylation specific PCR of GSTP1 promoter; type: cell-based; settings: 100 nm XB05 (BX11)
aqueous stability = type: physicochemical; settings: addressed by cremaphor/ethanol/NaCl formulation
Description: as §1

[11] = anti-proliferative assays; type: cell-based
Description: as §1

With `CCCCCC(C#CC(F)(F)Br)OC(C)=O` (racemic) [XB05b (BX17)] the “non-specific toxicities as judged by body weight” value (Colo-205 xenografts) was “no evidence of any severe non-specific toxicities” and the “in vivo antitumor efficacy” value (Colo-205 xenografts) was “in vivo antitumor efficacy”.
In the case of `Nc1ncn([C@@H]2O[C@H](CO)[C@@H](O)[C@H]2O)c(=O)n1` [5-aza, 5-azacytidine, reference compound], the maximally tolerated dose (A549 xenografts; mouse, in vivo) is reported as 6 mg/kg, the “effect on global DNA methylation” value (global DNA methylation) is reported as “causes global DNA methylation” and the “activity relative to XB05 (BX11)” value (global DNA methylation; 5-aza used at higher concentrations than XB05 (BX11)) is reported as “less active”.
In the case of `CCCCCC(O)C#CC(F)(F)Br` (centres unmarked) [XB05 (BX11)], the “tumor growth delay, alone” value (A549 xenografts; i.v. 25 mg/kg/day x 21, monotherapy) is reported as “significant tumor growth delay”, the “tumor growth delay, in combination with cisplatin” value (A549 xenografts; i.v. 25 mg/kg/day x 21 plus cisplatin 4 x 4 mg/kg every 3 days) is reported as “significant tumor growth delay” and the DNMT1 activity (DNMT1 [1]) is reported as “inhibitory effects”. For the same molecule, the “reactivation of silenced tumor suppressor genes” value [2] was “reactivates”, the “reactivation of silenced tumor suppressor genes” value ([2]; listed as XB05) was “reactivates” and the “expression of genes commonly silenced by methylation” value [3] was “re-expressed”. For the same molecule, the “expression of genes commonly silenced by methylation” value ([3]; listed as BX11 (XB05)) was “specific reactivation”, the “sensitivity to XB05 (BX11)” value (HCT116 cells [4]) was “sensitive” and the “sensitivity to XB05 (BX11)” value (LLC cells) was “resistant”. For the same molecule, the “senescence in cancer cells” value (HCT116 cells [5]) was “induction of senescence; also recorded: induce cellular senescence”, the “senescence in cancer cells” value (HCT116 cells [5]; listed as XB05) was “Induces senescence in cancer cells” and the cell death (MDA-MB-435) was “significant cell death”. For the same molecule, the cell death (MDA-MB-231) was “significant cell death”, the “sensitivity to XB05 (BX11)” value (A549 lung cancer cells) was “modest sensitivity” and the “colony formation in soft agar” value [6] was “inhibit”. The “effect on global DNA methylation” value (global DNA methylation) was “no obvious effect”, the “effect on global DNA methylation” value (global DNA methylation; listed as XB05) was “including no effect on global DNA methylation” and the “tumor necrosis ("hollow" tumors)” value (HCT116 xenografts) was “central tumor necrosis”. The “potent activity against several cancer cell lines” value [7] was “Discovered by chance to have potent activity (<100 nM) against”, the “anti-proliferative effects after knockdown of SOX9 using a specific siRNA” value (HOP92 cells) was “completely blocked” and the tumorsphere growth [8] was “inhibit”. For the same molecule, the GI50 (breast cancer cell lines) was less than 100 nM, the “endothelial cell function (transwell migration, tube formation)” value (endothelial cell (HUVEC)) was “inhibition; also recorded: inhibitory effects” and the “toxicity to HUVECs” value (endothelial cell (HUVEC)) was “non-toxic”. For the same molecule, the “endothelial cell function (transwell migration, tube formation)” value (endothelial cell (HUVEC); listed as XB05) was “Inhibits endothelial cell activity in in vitro assays”, the DNMT1 activity (DNMT1 [9]; recombinant human DNMT1, FIG. 5A) was “inhibitory effects” and the DNMT activity (DNMT1 [9]; summary statement, assay form not specified) was “Inhibits”. For the same molecule, the promoter methylation [10] was “inhibits”.
For `CC/C=C\CCC(O)C#CC(F)(F)Br` (centres unmarked) [XB05a (BX12)], the “antitumor activity alone compared with 5-aza alone” value (A549 xenografts; 5-aza at 6 mg/kg) was “more active”, the myelotoxicity (A549 xenografts; data not shown) was “no significant myelotoxicity” and the “toxicity (body weight loss) compared with 5-aza or cisplatin” value (A549 xenografts; mouse, in vivo) was “much less toxicity”. For the same molecule, the aqueous stability (aqueous stability) was “poor”, the “non-specific toxicities as judged by body weight” value (Colo-205 xenografts) was “no evidence of any severe non-specific toxicities” and the “in vivo antitumor efficacy” value (Colo-205 xenografts) was “in vivo antitumor efficacy”. The “activity in anti-proliferative assays compared to XB05 (BX11)” value [11] was “equivalent or better activity” and the “activity in DNMT1 inhibition assays compared to XB05 (BX11)” value (DNMT1 [9]) was “equivalent or better activity”.
